Data on 8 compounds can be found in US20110086759A1, “CHEMICAL COMPOUNDS” (SYNGENTA CROP PROTECTION, INC., priority 2007, published 2011).

Common to all, as to format: in vivo
The subject of assay [1] is Alopecurus myosuroides (ALOMY). The assay can be described thus: Pre-emergence biological efficacy, glasshouse pot test. The conditions noted are these: 312 h, pre-emergence, rate 1,000 g/ha, evaluated after 13 days (100=total damage to plant; 0=no damage), read-out: Percentage damage caused to weed species, ALOMY. In outline:
(§1)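 Test compound, formulated in acetone/water (50:50) containing 0.5% Tween 20 and diluted into an aqueous spray, was applied at 1000 or 250 g/ha to pots sown one day earlier. Injury was rated after 13 days, 100 meaning total damage.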

For assay [2], the system named is Amaranthus retoflexus (AMARE). Described as above. The conditions noted are these: Amaranthus retroflexus, 312 h; pre-emergence, rate 1,000 g/ha, evaluated after 13 days (100=total damage to plant; 0=no damage); read-out: Percentage damage caused to weed species, AMARE. The method in brief:
as §1

In assay [3] the test system is Echinochloa crus-galli (ECHCG). The description is as above. The conditions noted are these: 312 h, pre-emergence, rate 1,000 g/ha, evaluated after 13 days (100=total damage to plant; 0=no damage), read-out: Percentage damage caused to weed species, ECHCG. The method in brief: as §1
In assay [4] the test system is Ipomea hederaceae (IPOHE). The assay is described as above. The conditions noted are these: Ipomoea hederacea, 312 h; pre-emergence, rate 1,000 g/ha, evaluated after 13 days (100=total damage to plant; 0=no damage); read-out: Percentage damage caused to weed species, IPOHE. The method in brief:
as §1

The test system of assay [5] is Setaria faberi (SETFA). The assay is described as above. The conditions noted are these: 312 h, pre-emergence, rate 1,000 g/ha, evaluated after 13 days (100=total damage to plant; 0=no damage), read-out: Percentage damage caused to weed species, SETFA. In outline:
as §1

Assay [6] has as its system Solanum nigrum (SOLNI). Described as above. Particulars: 312 h, pre-emergence, rate 1,000 g/ha, evaluated after 13 days (100=total damage to plant; 0=no damage), read-out: Percentage damage caused to weed species, SOLNI. In outline: as §1
For assay [7], the system named is Alopecurus myosuroides (ALOMY). Briefly: Post-emergence biological efficacy, glasshouse pot test. Particulars: 312 h, Rate 1,000 g/ha, post-emergence spray, evaluated after 13 days (100=total damage to plant; 0=no damage to plant), read-out: Percentage damage caused to weed species, post-emergence, ALOMY. In outline: (§2)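 Plants were sown in standard soil and grown 8 days in a glasshouse (24/16° C. day/night, 14 hours light, 65% humidity), then sprayed post-emergence at 1000 or 250 g/ha from acetone/water (50:50) with 0.5% Tween 20. Damage was scored visually after 13 days (0 = none, 100 = total).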

Assay [8] relates to Amaranthus retoflexus (AMARE). Described as above. Particulars: Amaranthus retroflexus, 312 h; Rate 1,000 g/ha; post-emergence spray; evaluated after 13 days (100=total damage to plant; 0=no damage to plant); read-out: Percentage damage caused to weed species, post-emergence, AMARE. The method in brief: as §2
The test system of assay [9] is Echinochloa crus-galli (ECHCG). The assay is described as above. The conditions noted are these: 312 h, Rate 1,000 g/ha, post-emergence spray, evaluated after 13 days (100=total damage to plant; 0=no damage to plant), read-out: Percentage damage caused to weed species, post-emergence, ECHCG. In outline:
as §2

Assay [10] relates to Ipomea hederaceae (IPOHE). The description is as above. The conditions noted are these: Ipomoea hederacea, 312 h; Rate 1,000 g/ha; post-emergence spray; evaluated after 13 days (100=total damage to plant; 0=no damage to plant); read-out: Percentage damage caused to weed species, post-emergence, IPOHE. The method in brief:
as §2

Assay [11] relates to Setaria faberi (SETFA). Described as above. The conditions noted are these: 312 h, Rate 1,000 g/ha, post-emergence spray, evaluated after 13 days (100=total damage to plant; 0=no damage to plant), read-out: Percentage damage caused to weed species, post-emergence, SETFA. In outline: as §2
Assay [12] relates to Solanum nigrum (SOLNI). Described as above. Particulars: 312 h, Rate 1,000 g/ha, post-emergence spray, evaluated after 13 days (100=total damage to plant; 0=no damage to plant), read-out: Percentage damage caused to weed species, post-emergence, SOLNI. In outline: as §2

Regarding `COC(=O)c1nc(-c2cc(F)c(F)cc2F)nc(NCc2ccco2)c1Cl` [Compound 241-48, 5-Chloro-4-(furan-2-ylmethylamino)-6-methoxycarbony-2-(2,4,5-trifluoro-phenyl)pyrimidine], the pest or weed control at 1000 g/ha worked out at 0% in assay [1]; 80% in assay [2]; 0% in assay [3]; 10% in assay [4]; 0% in [5]; 0% in [6]. In addition, the pest or weed control at 1000 g/ha in assay [7] came to 10%; in assay [8], 80%; in assay [9] it was 0%; in assay [10], 60%; in assay [11], 10%; in assay [12], 50%.

For the compound `COC(=O)c1nc(-c2ccc(F)cc2)nc(NCc2ccco2)c1Cl` [Compound 242-48, 5-Chloro-2-(4-fluorophenyl)-4-(furan-2-yl-methyl-amino)-6-methoxy-carbonylpyrimidine], the pest or weed control at 1000 g/ha came to 10% in assay [1]; 100% in assay [2]; 0% in [3]; 20% in assay [4]; 0% in assay [5]; 20% in assay [6]. In addition, the pest or weed control at 1000 g/ha in assay [7] amounted to 20%; in assay [8], 100%; in assay [9] it was 20%; in assay [10], 60%; in assay [11], 20%; in assay [12], 50%.

For the compound `COC(=O)c1nc(-c2ccc(F)c(OC)c2)nc(NCc2ccco2)c1Cl` [Compound 243-48, 5-Chloro-2-(4-fluoro-3-methoxyphenyl)-4-(furan-2-yl-methyl-amino)-6-methoxy-carbonylpyrimidine], the pest or weed control at 1000 g/ha in assay [1] came to 10%; in [2], 60%; in assay [3] it was 0%; in assay [4] it was 0%; in assay [5], 40%; in [6] it was 10%. Also, the pest or weed control at 1000 g/ha worked out at 10% in [7]; 100% in [8]; 40% in [9]; 10% in assay [10]; 60% in [11]; 60% in assay [12].

As for `COC(=O)c1nc(-c2ccc(F)c(C(F)(F)F)c2)nc(NCc2ccco2)c1Cl` [Compound 244-48, 5-Chloro-2-(4-fluoro-3-trifluoromethyl-phenyl)-4-(furan-2-ylmethylamino)-6-methoxycarbonyl-pyrimidine], the pest or weed control at 1000 g/ha in [1] stood at 30%; in [2], 10%; in assay [3] it was 20%; in [4] it was 0%; in assay [5], 60%; in [6], 30%. Besides, the pest or weed control at 1000 g/ha in [7] worked out at 30%; in [8] it was 50%; in assay [9], 60%; in assay [10], 30%; in assay [11], 80%; in assay [12], 80%.

Consider `COC(=O)c1nc(-c2ccc(F)c(Cl)c2)nc(NCc2ccco2)c1Cl` [Compound 245-48, 5-Chloro-2-(3-chloro-4-fluorophenyl)-4-(furan-2-yl-methyl-amino)-6-methoxy-carbonylpyrimidine], for which the pest or weed control at 1000 g/ha was 30% in assay [1]; 80% in assay [2]; 30% in assay [3]; 20% in assay [4]; 30% in assay [5]; 10% in [6]. Moreover, the pest or weed control at 1000 g/ha in assay [7] stood at 20%; in assay [8], 100%; in [9], 40%; in assay [10] it was 60%; in [11], 70%; in [12], 90%.

Turning to `COC(=O)c1nc(-c2ccc(F)c(F)c2F)nc(NCc2ccco2)c1Cl` [Compound 247-48, 5-Chloro-4-(furan-2-ylmethylamino)-6-methoxycarbonyl-2-(2,3,4-trifluoro-phenyl)pyrimidine], the pest or weed control at 1000 g/ha in assay [1] was 10%; in [2], 90%; in assay [3], 10%; in assay [4] it was 40%; in assay [5] it was 20%; in [6] it was 40%. In addition, the pest or weed control at 1000 g/ha in assay [7] is 30%; in assay [8], 100%; in assay [9], 60%; in [10], 60%; in assay [11], 40%; in assay [12], 90%.

For `COC(=O)c1nc(-c2ccc(OC(F)(F)F)cc2)nc(NCc2ccco2)c1Cl` [Compound 248-48, 5-Chloro-4-(furan-2-ylmethylamino)-6-methoxycarbonyl-2-(4-trifluoromethoxy-phenyl)pyrimidine], the pest or weed control at 1000 g/ha in [1] amounted to 0%; in assay [2] it was 60%; in [3], 0%; in assay [4] it was 0%; in [5], 0%; in [6], 20%. The pest or weed control at 1000 g/ha in assay [7] turned out to be 0%; in assay [8], 70%; in assay [9], 40%; in assay [10], 50%; in assay [11], 0%; in assay [12] it was 70%.

In the case of `COC(=O)c1nc(-c2cccc(OC)c2F)nc(NCc2ccco2)c1Cl` [Compound 249-48, 5-Chloro-2-(2-fluoro-3-methoxyphenyl)-4-(furan-2-ylmethyl-amino)-6-methoxy-carbonylpyrimidine], the pest or weed control at 1000 g/ha stood at 0% in assay [1]; 70% in assay [2]; 0% in assay [3]; 20% in [4]; 20% in assay [5]; 30% in assay [6]. Further, the pest or weed control at 1000 g/ha in assay [7] amounted to 0%; in assay [8] it was 70%; in assay [9], 0%; in assay [10], 30%; in assay [11], 0%; in assay [12] it was 70%.
